pKi: −log10 of the molar value. “And” between values parts separate entries of the source, which are not always exact repeats. Equal values may be shown once.
target: T1, human GCGR (Homo sapiens, UniProt P47871); assay: Cellular functional assay, cAMP readout (glucagon-stimulated cAMP, LANCE TR-FRET); type: cell-based; settings: HEK293 cells stably expressing full-length human GCGR; glucagon 100 pM; IC50 converted to Ki; read-out: Inhibition of cAMP Ki
T1 construct: expressed in transfected cells; host or cells: HEK293 (hGluc-1HEK), pcDNA3.1, G418 selection
T1 sequence (P47871 26-477): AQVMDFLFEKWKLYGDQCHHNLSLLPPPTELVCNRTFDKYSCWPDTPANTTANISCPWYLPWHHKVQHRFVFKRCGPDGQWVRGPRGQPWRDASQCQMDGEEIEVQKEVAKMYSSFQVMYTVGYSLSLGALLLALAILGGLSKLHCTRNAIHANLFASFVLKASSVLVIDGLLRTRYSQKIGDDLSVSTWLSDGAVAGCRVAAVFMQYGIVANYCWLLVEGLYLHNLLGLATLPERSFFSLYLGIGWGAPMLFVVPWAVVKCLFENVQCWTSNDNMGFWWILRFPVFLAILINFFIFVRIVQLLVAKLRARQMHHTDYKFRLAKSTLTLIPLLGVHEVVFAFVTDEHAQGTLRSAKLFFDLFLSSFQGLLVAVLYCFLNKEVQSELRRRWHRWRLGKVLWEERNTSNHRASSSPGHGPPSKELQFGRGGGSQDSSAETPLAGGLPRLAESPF
Method: IC50 Values in Cellular Functional Assays: cAMP Readout
Full-length human GCGR (Accession Number: NM000160) subcloned into pcDNA3.1 was stably transfected into HEK293 cells (hGluc-1HEK) and maintained under G418 selection (500 μg/mL). Cell cultures were maintained in DMEM/F12 media supplemented with 10% FBS and 1% GlutaMax™ Supplement (Available from ThermoFisher Scientific, catalog #35050061). Glucagon stimulated cAMP was quantified using LANCE technology as per manufacturer instructions. On the day of the experiment, spent media was removed and cells were washed with Hank's Buffered Saline solution (HBSS), and cells harvested with non-enzymatic cell dissociation solution, then washed once with HBSS. Cells were re-suspended in stimulation buffer at a concentration of 0.83×10^6 cells/ml and cAMP detection antibody was added. 6 μl/well of this solution was then dispensed in a 384 well plate (cell density 5000 cells/well). Test compound was serially diluted in DMSO and 50 nl were dispensed on top of the cell solution and allowed to incubate for 30 minutes. 6 μl of a 2× glucagon solution (final concentration in assay 100 pM) was then added and the reaction was terminated after 5 minutes with the addition of detection mix. The resulting mixture was incubated, protected from light for 1.5 h. cAMP levels were quantified by TR-FRET in an EnVision instrument against a known standard. IC50's were generated by using a non-linear regression macro driven in Excel and converted to Ki values.

**Q.** With Cc1cc(Cl)ccc1-c1ccc2c(cnn2C(CC(C)C)c2ccc(C(=O)NCCC(=O)O)cc2)c1 (stereo not drawn) [Compound #39, 3-(4-(1-(5-(4-Chloro-2-methylphenyl)-1H-indazol-1-yl)-3-methylbutyl)benzamido)propanoic acid] as the molecule, how does the pKi read?
**A.** 6.68

**Q.** With O=C(O)CCNC(=O)c1ccc(C(CCC(F)(F)F)n2ncc3cc(-c4ccc(F)cc4Cl)ccc32)cc1 (stereo not drawn) [Compound #223, 3-(4-(1-(5-(2-Chloro-4-fluorophenyl)-1H-indazol-1-yl)-4,4,4-trifluorobutyl)benzamido)propanoic acid] as the molecule, how does the pKi read?
**A.** 6.02

**Q.** How did the pKi turn out when CC(C)CC(c1ccc(C(=O)NCCC(=O)O)nc1)n1ncc2cc(-c3ccc(C(C)(C)C)cc3)ccc21 (stereo not drawn) [Compound #36, 3-(5-(1-(5-(4-(tert-Butyl)phenyl)-1H-indazol-1-yl)-3-methylbutyl)picolinamido)propanoic acid] was run?
**A.** 6.37

**Q.** Cc1cc(C(F)(F)F)ccc1-c1cc2cnn(C(CC(C)C)c3ccc(C(=O)NCCC(=O)O)nc3)c2cc1Cl (stereo not drawn) [Compound #146, 3-[[5-[1-[6-Chloro-5-[2-methyl-4-(trifluoromethyl)phenyl]indazol-1-yl]-3-methyl-butyl]pridine-2-carbonyl]amino]propanoic acid] was tested. Which pKi did it give?
**A.** 6.80

**Q.** Cc1cc(Cl)ccc1-c1ccc2nn(C(CC(C)C)c3ccc(C(=O)NCCC(=O)O)cc3)cc2c1 (stereo not drawn) [Compound #168] was tested. Which pKi did it give?
**A.** 6.72

**Q.** With CC(C)(C)c1ccc(-c2ccc3c(cnn3C(CC3CCCCC3)c3ccc(C(=O)NCCC(=O)O)cc3)c2)cc1 (stereo not drawn) [Compound #24, 3-(4-(1-(5-(4-(tert-Butyl)phenyl)-1H-indazol-1-yl)-2-cyclohexylethyl)benzamido)propanoic acid] as the molecule, how does the pKi read?
**A.** 6.94

**Q.** With Cc1cc(C(F)(F)F)ccc1-c1ccc2nn(C(CC(C)C)c3ccc(C(=O)NCCC(=O)O)cc3)cc2c1 (stereo not drawn) [Compound #189, 3-(4-(3-Methyl-1-(5-(2-methyl-4-(trifluoromethyl)phenyl)-2H-indazol-2-yl)butyl)benzamido)propanoic acid] as the molecule, how does the pKi read?
**A.** 6.70

**Q.** CCCCCC(c1ccc(C(=O)NCCC(=O)O)cc1)n1ncc2cc(-c3ccc(C(F)(F)F)cc3)ccc21 (stereo not drawn) [compound 89] was tested. Which pKi did it give?
**A.** 6.89

**Q.** With CC(C)CCC(c1ccc(C(=O)NCCC(=O)O)cc1)n1cc2cc(-c3ccc(C(F)(F)F)cc3)ccc2n1 (stereo not drawn) [compound 27] as the molecule, how does the pKi read?
**A.** 6.98

**Q.** How did the pKi turn out when Cc1ccc(-c2ccc3c(cnn3C(CC(C)C)c3ccc(C(=O)NCCC(=O)O)cc3)c2C)c(Cl)c1 (stereo not drawn) [Compound #105, 3-(4-(1-(5-(2-Chloro-4-methylphenyl)-4-methyl-1H-indazol-1-yl)-3-methylbutyl)benzamido)propanoic acid] was run?
**A.** 6.10

**Q.** CCCCCC(c1ccc(C(=O)NCCC(=O)O)cc1)n1cc2cc(-c3ccc(C(F)(F)F)cc3)ccc2n1 (stereo not drawn) [compound 171] was tested. Which pKi did it give?
**A.** 6.88

**Q.** How did the pKi turn out when CC(C)C[C@H](c1ccc(C(=O)NCCC(=O)O)cc1)n1ncc2cc(-c3ccc(C(F)(F)F)cc3Cl)ccc21 [Compound #85, 3-[[4-[(1R)-1-[5-[2-Chloro-4-(trifluoromethyl)phenyl]indazol-1-yl]-3-methyl-butyl]benzoyl]amino]propanoic acid] was run?
**A.** 5.90

**Q.** CC(C)CCC(c1ccc(C(=O)NCCC(=O)O)cc1)n1ncc2cc(-c3ccc(C(F)(F)F)cc3)ccc21 (stereo not drawn) [compound 59] was tested. Which pKi did it give?
**A.** 6.81

**Q.** How did the pKi turn out when Cc1cc(C(F)(F)F)ccc1-c1cc2cnn(C(CC(C)C)c3ccc(C(=O)NCCC(=O)O)cc3)c2cc1C (stereo not drawn) [Compound #93, 3-[[4-[3-Methyl-1-[6-methyl-5-[2-methyl-4-(trifluoromethyl)phenyl]indazol-1-yl]butyl]benzoyl]amino]propanoic acid] was run?
**A.** 7.44

**Q.** How did the pKi turn out when CCCC(c1ccc(C(=O)NCCC(=O)O)cc1)n1cc2cc(-c3ccc(C(C)(C)C)cc3)ccc2n1 (stereo not drawn) [Compound #22, 3-(4-(1-(5-(4-(tert-Butyl)phenyl)-2H-indazol-2-yl)butyl)benzamido)propanoic acid] was run?
**A.** 6.10

**Q.** With O=C(O)CCNC(=O)c1ccc(C(CC2CCCC2)n2ncc3cc(-c4ccc(C(F)(F)F)cc4)ccc32)cc1 (stereo not drawn) [compound 208] as the molecule, how does the pKi read?
**A.** 6.76

**Q.** How did the pKi turn out when CC(C)CC(c1ccc(C(=O)NCCC(=O)O)cc1)n1ncc2c(Cl)c(-c3ccc(C(F)(F)F)cc3Cl)ccc21 (stereo not drawn) [Compound #141, 3-(4-(1-(4-Chloro-5-(2-chloro-4-(trifluoromethyl)phenyl)-1H-indazol-1-yl)-3-methylbutyl)benzamido)propanoic acid] was run?
**A.** 6.94

**Q.** How did the pKi turn out when O=C(O)CCNC(=O)c1ccc(C(CC2CC2)n2ncc3cc(-c4ccc(C(F)(F)F)cc4)ccc32)cc1 (stereo not drawn) [compound 32] was run?
**A.** 6.48

**Q.** With CCCCCCC(c1ccc(C(=O)NCCC(=O)O)cc1)n1cc2cc(-c3ccc(C(F)(F)F)cc3)ccc2n1 (stereo not drawn) [Compound #26] as the molecule, how does the pKi read?
**A.** 7.35

**Q.** With O=C(O)CCNC(=O)c1ccc(C(CCC(F)(F)F)n2cc3cc(-c4ccc(Cl)cc4Cl)ccc3n2)cc1 (stereo not drawn) [Compound #224, 3-[[4-[1-[5-(2,4-Dichlorophenyl)indazol-2-yl]-4,4,4-trifluorobutyl]benzoyl]amino]propanoic acid] as the molecule, how does the pKi read?
**A.** 6.96

**Q.** CC(C)CC(c1ccc(C(=O)NCCC(=O)O)cc1)n1ncc2cc(-c3ccc4ccccc4c3)ccc21 (stereo not drawn) [compound 71] was tested. Which pKi did it give?
**A.** 6.72

**Q.** How did the pKi turn out when Cc1cc2c(cnn2[C@H](CC(C)C)c2ccc(C(=O)NCCC(=O)O)cc2)cc1-c1ccc(C(F)(F)F)cc1 [Compound #229, 3-[[4-[(1R)-3-Methyl-1-[6-methyl-5-[4-(trifluoromethyl)phenyl]indazol-1-yl]butyl]benzoyl]amino]propanoic acid] was run?
**A.** 5.81

**Q.** With CC(C)(C)c1ccc(-c2ccc3nn(C(CC4CCCCC4)c4ccc(C(=O)NCCC(=O)O)cc4)cc3c2)cc1 (stereo not drawn) [Compound #228, 3-(4-(1-(5-(4-(tert-Butyl)phenyl)-2H-indazol-2-yl)-2-cyclohexylethyl)benzamido)propanoic acid] as the molecule, how does the pKi read?
**A.** 6.89

**Q.** With CC(C)CC(c1ccc(C(=O)NCCC(=O)O)nc1)n1ncc2cc(-c3ccc(Cl)cc3Cl)ccc21 (stereo not drawn) [Compound #113, 3-(5-(1-(5-(2,4-Dichlorophenyl)-1H-indazol-1-yl)-3-methylbutyl)picolinamido)propanoic acid] as the molecule, how does the pKi read?
**A.** 6.38

**Q.** O=C(O)CCNC(=O)c1ccc(C(CCc2ccc(Cl)cc2)n2cc3cc(-c4ccc(C(F)(F)F)cc4)ccc3n2)cc1 (stereo not drawn) [compound 200] was tested. Which pKi did it give?
**A.** 7.10

**Q.** With O=C(O)CCNC(=O)c1ccc(C(CCCC(F)(F)F)n2ncc3cc(-c4ccc(C(F)(F)F)cc4)ccc32)cc1 (stereo not drawn) [compound 234] as the molecule, how does the pKi read?
**A.** 6.56

**Q.** With O=C(O)CCNC(=O)c1ccc(C(CC2CCCC2)n2ncc3cc(-c4ccc(C(F)(F)F)cc4)ccc32)cn1 (stereo not drawn) [compound 199] as the molecule, how does the pKi read?
**A.** 6.51

**Q.** With Cc1cc(Cl)ccc1-c1ccc2nn(C(CC(C)(C)C)c3ccc(C(=O)NCCC(=O)O)nc3)cc2c1 (stereo not drawn) [compound 257] as the molecule, how does the pKi read?
**A.** 7.59

**Q.** With CC(C)CC(c1ccc(C(=O)NCCC(=O)O)cc1)n1ncc2cc(-c3ccsc3)ccc21 (stereo not drawn) [compound 221] as the molecule, how does the pKi read?
**A.** 5.54

**Q.** With O=C(O)CCNC(=O)c1ccc(C(CCC2CCCCC2)n2cc3cc(-c4ccc(C(F)(F)F)cc4)ccc3n2)cc1 (stereo not drawn) [compound 133] as the molecule, how does the pKi read?
**A.** 7.04

**Q.** How did the pKi turn out when Cc1cc(C(F)(F)F)ccc1-c1ccc2nn(C(CC(C)C)c3ccc(C(=O)NCCC(=O)O)nc3)cc2c1 (stereo not drawn) [Compound #19] was run?
**A.** 7.33 and 7.31

**Q.** How did the pKi turn out when O=C(O)CCNC(=O)c1ccc(C(CCC(F)(F)F)n2ncc3cc(-c4ccc(Cl)cc4Cl)ccc32)cc1 (stereo not drawn) [Compound #112, 3-[[4-[1-[5-(2,4-Dichlorophenyl)indazol-1-yl]-4,4,4-trifluorobutyl]benzoyl]amino]propanoic acid] was run?
**A.** 6.39

**Q.** With Cc1cc(C(F)(F)F)ccc1-c1cc2cn(C(CC(C)C)c3ccc(C(=O)NCCC(=O)O)cc3)nc2cc1Cl (stereo not drawn) [Compound #30, 3-[[4-[1-[6-Chloro-5-[2-methyl-4-(trifluoromethyl)phenyl]indazol-2-yl]-3-methyl-butyl]benzoyl]amino]propanoic acid] as the molecule, how does the pKi read?
**A.** 7.36

**Q.** How did the pKi turn out when O=C(O)CCNC(=O)c1ccc(C(CCC(F)(F)F)n2ncc3cc(-c4cc(Cl)cc(Cl)c4)ccc32)cc1 (stereo not drawn) [Compound #45, 3-[[4-[1-[5-(3,5-Dichlorophenyl)indazol-1-yl]-4,4,4-trifluorobutyl]benzoyl]amino]propanoic acid] was run?
**A.** 5.78

**Q.** CC(C)CC(c1ccc(C(=O)NCCC(=O)O)cc1)n1ncc2cc(-c3ccc(C(C)(C)C)cc3)ccc21 (single isomer, unassigned) [Compound #163] was tested. Which pKi did it give?
**A.** 6.33

**Q.** How did the pKi turn out when CC(C)(C)CC(c1ccc(C(=O)NCCC(=O)O)nc1)n1ncc2cc(-c3ccc(C(F)(F)F)cc3)ccc21 (stereo not drawn) [compound 237] was run?
**A.** 6.80

**Q.** COc1c(-c2ccc(C(F)(F)F)cc2Cl)ccc2nn([C@H](CC(C)C)c3ccc(C(=O)NCCC(=O)O)cc3)cc12 [Compound #191, 3-[[4-[(1R)-1-[5-[2-Chloro-4-(trifluoromethyl)phenyl]-4-methoxy-indazol-2-yl]-3-methyl-butyl]benzoyl]amino]propanoic acid] was tested. Which pKi did it give?
**A.** 7.46

**Q.** With O=C(O)CCNC(=O)c1ccc(C(CCC(F)(F)F)n2ncc3cc(-c4cc5ccccc5o4)ccc32)cc1 (stereo not drawn) [Compound #11, 3-[[4-[1-[5-(Benzofuran-2-yl)indazol-1-yl]-4,4,4-trifluorobutyl]benzoyl]amino]propanoic acid] as the molecule, how does the pKi read?
**A.** 6.76

**Q.** COc1c(-c2ccc(C(F)(F)F)cc2C)ccc2c1cnn2C(CC(C)C)c1ccc(C(=O)NCCC(=O)O)cc1 (stereo not drawn) [Compound #29, 3-(4-(1-(4-Methoxy-5-(2-methyl-4-(trifluoromethyl)phenyl)-1H-indazol-1-yl)-3-methylbutyl)benzamido)propanoic acid] was tested. Which pKi did it give?
**A.** 7.22
